Assay results published in patent US11434242B2, “Dopamine-b-hydroxylase inhibitors” (BIAL-PORTELA & Cª, S.A., priority 2017, dated 2022).
Counter-ions that a name gives are not always drawn.

What was measured:
[1] = biological target: T1, Dopamine beta hydroxylase (Rattus norvegicus, UniProt Q05754); assay: DβH activity in rat adrenal gland homogenates after oral administration; type: in vivo; details: 10 mg/kg oral; for DβH activity in ADR (% Control): rat adrenal gland homogenates, maximal within 6 h post-dose, mean±SD of 4 rats; for DβH inhibition in peripheral tissues such as ADR: rat
T1 construct: Samples were constituted by the right and left adrenals of each animal; from tissue; host or cells: Wistar rat adrenal glands (homogenate)
T1 sequence (Q05754 1-620): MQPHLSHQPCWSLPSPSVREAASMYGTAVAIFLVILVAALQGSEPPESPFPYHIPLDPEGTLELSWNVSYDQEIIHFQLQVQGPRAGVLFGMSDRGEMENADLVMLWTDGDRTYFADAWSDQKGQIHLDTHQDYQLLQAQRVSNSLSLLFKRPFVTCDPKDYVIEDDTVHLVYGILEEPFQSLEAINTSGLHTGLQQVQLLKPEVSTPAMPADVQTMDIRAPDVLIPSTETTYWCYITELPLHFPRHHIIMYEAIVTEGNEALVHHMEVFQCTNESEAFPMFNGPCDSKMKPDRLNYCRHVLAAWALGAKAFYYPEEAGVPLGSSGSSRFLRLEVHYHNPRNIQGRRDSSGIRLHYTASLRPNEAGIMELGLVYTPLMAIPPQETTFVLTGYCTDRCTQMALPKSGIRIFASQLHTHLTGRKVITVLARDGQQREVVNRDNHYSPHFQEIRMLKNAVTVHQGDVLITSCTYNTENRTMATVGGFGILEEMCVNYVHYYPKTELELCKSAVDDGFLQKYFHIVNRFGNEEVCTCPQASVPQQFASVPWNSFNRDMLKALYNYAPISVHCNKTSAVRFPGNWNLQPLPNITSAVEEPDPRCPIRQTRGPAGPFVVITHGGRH
Experimental: Dopamine beta hydroxylase activity in rat adrenal gland homogenates was measured by the method of Nagatsu and Udenfriend (Nagatsu, T. and Udenfriend, S. “Photometric assay of dopamine-μ-hydroxylase activity in human blood.” Clin. Chem. 18(9) 980-983, 1972) with minor modifications. Catalase, N-ethylmaleimide, tyramine, disodium fumarate, pargyline, sodium acetate, ascorbic acid, copper sulfate and octopamine were obtained from Sigma Chemical Co., St. Louis, Mo. 63178. Test compounds were prepared in kleptose 40% at a concentration of 0.75, 2.5 or 7.5 mg/mL to be administered at a dose of 10 mg/kg. Compounds and vehicle (kleptose 40%) were administered to wistar rats and adrenals were collected 0.5 h, 1 h, 2 h, 4 h, 6 h, 8 h, 15 h and 24 h after administration. Samples were constituted by the right and left adrenals of each animal. Adrenals were stored in 200 μL of 50 mM Tris pH 7.4 at −30° C., from date of collection. The samples were homogenized and homogenates were then quantified for protein. Protein concentration was adjusted to 1.6 mg/ml. The various reagents used to make up the incubation buffer were premixed and consisted of the following components: sodium acetate buffer (1 M, pH 5.0, 6.0 mL), sodium fumarate (0.2 M, 1.5 mL), ascorbic acid (0.2 M, 1.5 mL, freshly prepared), pargyline (20 mM, freshly prepared, 1.5 mL), N-ethylmaleimide (0.2 M, 1.5 mL), catalase (55 000 U/ml, 3 mL), copper sulfate (90 μM, 1.67 mL) and ultrapure water (1.33 mL). The standard incubation mixture (total volume, 500 μL) contained: 350 μL of incubation buffer; 125 μL of protein sample (or buffer for blank reaction or standard curve). The reaction mixture was placed in water bath with shaking at 37° C. and pre-incubated for 10 minutes. Tyramine (0.4 M, 25 μL) was added and incubation proceeded for 45 minutes. The reaction contents were exposed to air. A sample of enzyme preparation (with 125 μL of protein sample) that had been added perchloric acid 2 M at the end of the pre-incubation period was used as blank. A blank for each of the tested compounds was used. For octopamine standard curve, perchloric acid 2 M was replaced by increasing concentrations of octopamine prepared in perchloric acid 2 M (0.5, 1, 2.5, 5, 7.5, 10 μg/mL, final concentration). The incubation was stopped by adding 50 μL of 2 M molar perchloric acid, and the mixture was centrifuged at 16000 g for 3 min. The supernatant fluid (500 μL) was transferred to a column (SPE cartridge ISOLUTE SCX-3, 100 mg) and centrifuged at 150 g for 2 min. The column was washed two more times with 0.5 ml of ultrapure water by centrifuging at 150 g for 2 min. The adsorbed octopamine was eluted twice with 250 μL of 4 M ammonium hydroxide by centrifuging at 150 g for 2 min. Octopamine in the eluate was then converted to p-hydroxybenzaldehyde by adding 100 μL of sodium periodate (2%) and incubating for 6 min. Excess periodate was than reduced by adding 100 μl of sodium metabisulfite (10%). Absorbance was measured at […] in a 96 well plate by use of a SpectraMAX plus 384 (Molecular Devices) with software SOFTmax® PRO Software 5.3 spectrophotometer. Absorbance was linear with octopamine concentration from 0.5 to 10 μg/mL. Dopamine beta hydroxylase activity is determined as nmol of octopamine formed/mg of protein/hour and effect of compounds is presented as % of control.

[2] = tested on: noradrenaline (NA) in brain stem; assay: Catecholamine determination: noradrenaline in brain stem after oral administration; type: in vivo, Wistar rats; details: 10 mg/kg oral; for NA in Br.s (% Control): rat brain stem noradrenaline, 15 h post-dose, mean±SD of 4 rats; for effect on levels of NA in CNS tissues such as brain stem: rat
Experimental: Catecholamines quantification in brain stem was performed as previously described (Bonifacio, M. J.; Sousa, F.; Neves, M.; Palma, N.; Igreja, B.; Pires, N. M.; Wright, L. C.; Soares-da-Silva, P. “Characterization of the interaction of the novel anthyhypertensive etamicastat with human dopamine-beta-hydroxylase: comparison with nepicastat.” Eur. J. Pharmacol. 751, 50-58, 2015) with minor modifications. Test compounds were prepared in 40% of kleptose at a concentration of 2.5 mg/ml to be administered at a dose of 10 mg/kg. Compounds and vehicle (kleptose 40%) were administered to Wistar rats and tissues (brain stem or heart left ventricle) collected in perchloric acid (0.2M) at defined time points after administration. Tissues were stored overnight at 4° C. and the solution was then filtered by centrifugation (1500 g, 4 min, 4° C.) through 0.22 μm pore size filters (Costar Spin-x from Corning Inc., USA). Catecholamines were quantified in filtrates by directly injecting 50 μl of sample volume on a HPLC system with electrochemical detection, using a Spheri-5RP-185 mm column (Perkin-Elmer). Mobile phase consisted of a solution containing 0.1M citric acid, 0.1M sodium acetate, 0.15 mM EDTA, 1 mM dibutylamine, 1 mM octylsulfate, and 5% methanol adjusted to pH 3.5 with perchloric acid.

SMILES	DβH activity in ADR (% Control) [1]	DβH inhibition in peripheral tissues such as ADR [1]	NA in Br.s (% Control) [2]	effect on levels of NA in CNS tissues such as brain stem [2]
Cl.Fc1ccc(Cl)cc1[C@]12C[C@H]1c1c(CCN3CCOCC3)[nH]c(=S)n1C2 [Example 174, (5aS,6aR)-5a-(5-chloro-2-fluorophenyl)-1-(2-morpholinoethyl)-5,5a,6,6a-tetrahydrocyclopropa[3,4]pyrrolo[1,2-c]imidazole-3(2H)-thione hydrochloride]	39 ± 18 % Control	inhibit DβH	84 ± 8 % Control	failed to reduce levels of NA
F.Fc1ccc(Br)cc1[C@]12C[C@H]1c1c(CCN3CCOCC3)[nH]c(=S)n1C2 [Example 191, (5aS,6aR)-5a-(5-bromo-2-fluorophenyl)-1-(2-morpholinoethyl)-5,5a,6,6a-tetrahydrocyclopropa[3,4]pyrrolo[1,2-c]imidazole-3(2H)-thione hydrofluoride]	45 ± 8 % Control	inhibit DβH	83 ± 10 % Control	failed to reduce levels of NA
Fc1ccc(Br)c(F)c1[C@@H]1Cc2c(CCN3CCOCC3)[nH]c(=S)n2C1 [Example 195, (S)-6-(3-bromo-2,6-difluorophenyl)-1-(2-morpholinoethyl)-2,5,6,7-tetrahydro-3H-pyrrolo[1,2-c]imidazole-3-thione]	21 ± 9 % Control	inhibit DβH	123 ± 55 % Control	failed to reduce levels of NA
Cn1c(CC(=O)O)c2n(c1=S)C[C@@]1(c3c(F)ccc(Cl)c3F)C[C@@H]21 [Example 231, 2-((5aS,6aR)-5a-(3-chloro-2,6-difluorophenyl)-2-methyl-3-thioxo-2,3,5,5a,6,6a-hexahydrocyclopropa[3,4]pyrrolo[1,2-c]imidazol-1-yl)acetic Acid]	43 ± 9 % Control	inhibit DβH	99 ± 14 % Control	failed to reduce levels of NA
CN(C(=O)Cc1c2n(c(=S)n1C)C[C@@]1(c3c(F)ccc(Cl)c3F)C[C@@H]21)C1COC1 [Example 403, 2-((5aS,6aR)-5a-(3-chloro-2,6-difluorophenyl)-2-methyl-3-thioxo-2,3,5,5a,6,6a-hexahydrocyclopropa[3,4]pyrrolo[1,2-c]imidazol-1-yl)-N-methyl-N-(oxetan-3-yl)acetamide]	0 ± 0 % Control	inhibit DβH	87 ± 16 % Control	failed to reduce levels of NA

Now from value to compound, other results behind:

DβH activity in ADR (% Control) [1]	DβH inhibition in peripheral tissues such as ADR [1]	SMILES	NA in Br.s (% Control) [2]	effect on levels of NA in CNS tissues such as brain stem [2]
43 ± 16 % Control	inhibit DβH	Fc1cc(F)c(F)c([C@H]2Cc3c(CCCN4CCCC4)[nH]c(=S)n3C2)c1F [Example 219, (R)-1-(3-(pyrrolidin-1-yl)propyl)-6-(2,3,5,6-tetrafluorophenyl)-2,5,6,7-tetrahydro-3H-pyrrolo[1,2-c]imidazole-3-thione hydrochloride]	92 ± 23 % Control	failed to reduce levels of NA
44 ± 22 % Control	inhibit DβH	Cl.Cn1c(CCN[C@@H]2CCOC2)c2n(c1=S)C[C@H](c1c(F)ccc(Br)c1F)C2 [Example 256, (S)-6-(3-bromo-2,6-difluorophenyl)-2-methyl-1-(2-(((R)-tetrahydrofuran-3-yl)amino)ethyl)-2,5,6,7-tetrahydro-3H-pyrrolo[1,2-c]imidazole-3-thione hydrochloride]	128 ± 64 % Control	failed to reduce levels of NA
